# Results: paper PMC9050923, “6,N^2-Diaryl-1,3,5-triazine-2,4-diamines: synthesis, antiproliferative activity and 3D-QSAR modeling” (RSC Advances, 2020)
# Legend:
# Assay type in all cases: cell-based
# [1] = test system: MDA-MB231; experiment: MTT assay, MDA-MB231 breast cancer cells; conditions: Homo sapiens, MDA-MB-231, MTT; for viability at 10 µM: 72 h after the treatment, mean of three independent experiments, read-out: Percentage of cell viability MDA-MB231; for GI50: 72 h, mean of three independent experiments ± SEM, read-out: GI50 (μM) ± SEM MDA-MB231
# Procedure: (§1) The prepared compounds 1–126 were tested on three breast cancer cell lines namely, MDA-MB231, SKBR-3 and MCF-7 using MTT assay. SKBR-3 and MCF-7 cell lines are estrogen and progesterone hormone positive cell lines often used as a model for the hormone therapy.[18] MDA-MB231 is triple negative breast cancer cell line, which is negative to estrogen and progesterone receptors and human epidermal growth factor receptor 2, a perfect model for chemotherapy.[18] Initially, all the prepared compounds 1–126 were tested on these three cancer cell lines at the screening concentration (10 μM) and percentage of cell viability was calculated 72 h after the treatment (Table 1).
# (§2) The growth inhibitory effect of the compounds was determined on breast tumor cell line (MDA-MB231, SKBR-3 and MCF-7) at different concentrations with methotrexate and nilotinib as positive controls (Table 2).
# (§3) The cytotoxic activity of 6,N^2-diaryl-1,3,5-triazine-2,4-diamines (1–126) was evaluated against three breast carcinoma cell lines (MDA-MB231, SKBR-3, and MCF-7) and normal breast cell line (MCF-10A) by MTT assay.[22] All cells were obtained from the American Type Culture Collection and were grown in 10% fetal bovine serum and 1% pen-strep antibiotic supplemented media (DMEM for MDA-MB231 and SKBR-3, RPMI for MCF-7, and MEGM for MCF-10A). For MTT assay, 20 000 to 75 000 cells per mL (based on the doubling time for each cell line) were seeded in 96 well plates and incubated for 24 h at 37 °C in 5% CO2 incubator. Then, compounds at different concentrations were added followed by the incubation at 37 °C for 72 h. After that, MTT solution (0.5 mg mL^−1) was added and the plates were incubated for another 4 h. The supernatant was then discarded and 100 μL of DMSO was added to each well. The plates were then read by Tecan NanoQuant (model: infinite m200 pro) plate reader and absorbance was measured at 570 nm. GI50 values were calculated using sigmoidal concentration–response curves (see ESI ^†) generated using the GraphPad Prism 7 program. Three independent experiments were carried out and the data were represented as mean of the three experiments.
# [2] = test system: SKBR-3; experiment: MTT assay, SKBR-3 breast cancer cells; conditions: Homo sapiens, SK-BR-3, MTT; for viability at 10 µM: 72 h after the treatment, mean of three independent experiments, read-out: Percentage of cell viability SKBR-3
# Procedure: as §1, §2, §3
# [3] = test system: MCF-7; experiment: MTT assay, MCF-7 breast cancer cells; conditions: Homo sapiens; for viability at 10 µM: MCF7, 10 μM, 72 h after the treatment, mean of three independent experiments, read-out: Percentage of cell viability MCF-7
# Procedure: as §1, §2, §3
GI50 [1] [µM],"GI50 ([3]; MCF7, 72 h, mean of three independent experiments ± SEM) [µM]","GI50 ([2]; 72 h, mean of three independent experiments ± SEM) [µM]",Structure (SMILES),viability at 10 µM [1] [%],viability at 10 µM [2] [%],viability at 10 µM [3] [%]
,,,Nc1nc(Nc2ccccc2)nc(-c2ccccc2)n1 [Compound 1],87,81,90
,,,"Nc1nc(Nc2ccccc2Cl)nc(-c2ccccc2)n1 [Compound 4, N ^2-(2-Chlorophenyl)-6-phenyl-1,3,5-triazine-2,4-diamine]",72,88,81
,,,Nc1nc(Nc2ccc(Cl)cc2)nc(-c2ccccc2)n1 [Compound 5],65,94,100
,,,Nc1nc(Nc2ccc(Br)cc2)nc(-c2ccccc2)n1 [Compound 6],65,97,100
,,,Cc1ccc(Nc2nc(N)nc(-c3ccccc3)n2)cc1 [Compound 7],98,87,87
,,,COc1ccccc1Nc1nc(N)nc(-c2ccccc2)n1 [Compound 8],78,97,91
,,,COc1ccc(Nc2nc(N)nc(-c3ccccc3)n2)cc1 [Compound 9],98,96,84
,,,Nc1nc(Nc2ccc(OC(F)(F)F)cc2)nc(-c2ccccc2)n1 [Compound 10],96,86,92
,,,CC(C)c1ccc(Nc2nc(N)nc(-c3ccccc3)n2)cc1 [Compound 11],99,86,99
,,,Nc1nc(Nc2cccnc2)nc(-c2ccccc2)n1 [Compound 12],59,78,87
,,,Nc1nc(Nc2ccccc2)nc(-c2cccc(F)c2)n1 [Compound 13],100,100,89
,,,Nc1nc(Nc2ccc(Cl)cc2)nc(-c2cccc(F)c2)n1 [Compound 15],100,100,89
,,,CC(C)c1ccc(Nc2nc(N)nc(-c3cccc(F)c3)n2)cc1 [Compound 20],100,100,92
,,,Nc1nc(Nc2ccccc2)nc(-c2ccc(F)cc2)n1 [Compound 21],83,94,100
,,,Nc1nc(Nc2ccccc2F)nc(-c2ccc(F)cc2)n1 [Compound 22],83,85,100
,,,Nc1nc(Nc2ccc(F)cc2)nc(-c2ccc(F)cc2)n1 [Compound 23],81,100,93
,,,Nc1nc(Nc2ccccc2Cl)nc(-c2ccc(F)cc2)n1 [Compound 24],75,75,91
,,,Nc1nc(Nc2cccc(Cl)c2)nc(-c2ccc(F)cc2)n1 [Compound 25],73,88,95
,,,Nc1nc(Nc2ccc(Cl)cc2)nc(-c2ccc(F)cc2)n1 [Compound 26],67,98,87
,,,Nc1nc(Nc2ccc(Br)cc2)nc(-c2ccc(F)cc2)n1 [Compound 27],96,100,94
,,,Cc1ccc(Nc2nc(N)nc(-c3ccc(F)cc3)n2)cc1 [Compound 28],99,90,88
,,,COc1ccccc1Nc1nc(N)nc(-c2ccc(F)cc2)n1 [Compound 29],60,81,96
,,,Nc1nc(Nc2ccc(OC(F)(F)F)cc2)nc(-c2ccc(F)cc2)n1 [Compound 31],88,92,87
,,,CC(C)c1ccc(Nc2nc(N)nc(-c3ccc(F)cc3)n2)cc1 [Compound 32],94,100,84

GI50 [1] [µM],"GI50 ([3]; MCF7, 72 h, mean of three independent experiments ± SEM) [µM]","GI50 ([2]; 72 h, mean of three independent experiments ± SEM) [µM]",Structure (SMILES),viability at 10 µM [1] [%],viability at 10 µM [2] [%],viability at 10 µM [3] [%]
,,,Nc1nc(Nc2cccnc2)nc(-c2ccc(F)cc2)n1 [Compound 33],74,87,85
,,,Nc1nc(Nc2ccccc2F)nc(-c2ccc(Cl)cc2)n1 [Compound 35],82,99,93
,,,Nc1nc(Nc2ccccc2Cl)nc(-c2ccc(Cl)cc2)n1 [Compound 37],99,89,99
,,,Nc1nc(Nc2cccc(Cl)c2)nc(-c2ccc(Cl)cc2)n1 [Compound 38],99,92,84
,,,Nc1nc(Nc2ccc(Cl)cc2)nc(-c2ccc(Cl)cc2)n1 [Compound 39],97,100,100
,,,Nc1nc(Nc2ccc(Br)cc2)nc(-c2ccc(Cl)cc2)n1 [Compound 40],80,100,92
,,,COc1ccccc1Nc1nc(N)nc(-c2ccc(Cl)cc2)n1 [Compound 41],83,89,100
,,,COc1ccc(Nc2nc(N)nc(-c3ccc(Cl)cc3)n2)cc1 [Compound 42],61,90,85
,,,Nc1nc(Nc2ccc(OC(F)(F)F)cc2)nc(-c2ccc(Cl)cc2)n1 [Compound 43],93,83,100
,,,CC(C)c1ccc(Nc2nc(N)nc(-c3ccc(Cl)cc3)n2)cc1 [Compound 44],100,97,96
,,,Nc1nc(Nc2cccnc2)nc(-c2ccc(Cl)cc2)n1 [Compound 45],99,74,89
,,,Nc1nc(Nc2ccccc2F)nc(-c2ccc(Br)cc2)n1 [Compound 46],75,91,100
,,,Nc1nc(Nc2ccc(F)cc2)nc(-c2ccc(Br)cc2)n1 [Compound 47],58,98,100
,,,Nc1nc(Nc2ccccc2Cl)nc(-c2ccc(Br)cc2)n1 [Compound 48],90,93,100
,,,Nc1nc(Nc2ccc(Cl)cc2)nc(-c2ccc(Br)cc2)n1 [Compound 49],96,100,100
,,,Cc1ccc(Nc2nc(N)nc(-c3ccc(Br)cc3)n2)cc1 [Compound 50],55,93,88
,,,COc1ccccc1Nc1nc(N)nc(-c2ccc(Br)cc2)n1 [Compound 51],88,89,96
,,,COc1ccc(Nc2nc(N)nc(-c3ccc(Br)cc3)n2)cc1 [Compound 52],56,91,100
,,,"Cc1cccc(-c2nc(N)nc(Nc3ccc(F)cc3)n2)c1 [Compound 53, N ^2-(4-Fluorophenyl)-6-(3-methylphenyl)-1,3,5-triazine-2,4-diamine]",100,100,78
,,,Cc1cccc(-c2nc(N)nc(Nc3ccc(Cl)cc3)n2)c1 [Compound 54],100,93,76
,,,Cc1cccc(-c2nc(N)nc(Nc3ccc(Br)cc3)n2)c1 [Compound 55],83,96,75
0.01 ± 0.001,5.79 ± 0.47,,"CN(Cc1cnc2nc(N)nc(N)c2n1)c1ccc(C(=O)N[C@@H](CCC(=O)O)C(=O)O)cc1 [Methotrexate, reference compound]",,,
0.04 ± 0.001,,9.6 ± 0.51,"Cc1cn(-c2cc(NC(=O)c3ccc(C)c(Nc4nccc(-c5cccnc5)n4)c3)cc(C(F)(F)F)c2)cn1 [Nilotinib, reference compound]",,,
